Earlier results on two compounds are cited in patent US11883378B2, “Hydrogel formulations and methods and devices for focal administration of the same” (Pykus Therapeutics, Inc., priority 2021, dated 2024).

≈ marks a conversion by molar mass, not a printed value.

Series [1] deals with VEGF.
Sequence of VEGF (P15692 207-311 limits assumed): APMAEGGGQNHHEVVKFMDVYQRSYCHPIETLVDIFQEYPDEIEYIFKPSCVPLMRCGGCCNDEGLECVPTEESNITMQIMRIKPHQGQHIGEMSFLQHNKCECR

Turning to “Bevacizumab: anti-VEGF monoclonal antibody (large protein) with a molecular weight of ~150 kD”, the “tolerability of intravitreal injection” value in series [1] (dose of 1.25 mg) was “well tolerated”. Also, in series [1] (maintained by monthly repetitive intravitreal injections), the “effective dose in the vitreous” value is about 1 µg/mL. Turning to `C=CC[C@@H]1/C=C(\C)C[C@H](C)C[C@H](OC)[C@H]2O[C@@](O)(C(=O)C(=O)N3CCCC[C@H]3C(=O)O[C@H](/C(C)=C/[C@@H]3CC[C@@H](O)[C@H](OC)C3)[C@H](C)[C@@H](O)CC1=O)[C@H](C)C[C@@H]2OC` [Tacrolimus], the solubility in water was about 1 µg/mL (≈ 1.24 µM).
